No end group written: not given here.
What was measured:
[1] = Toxicity at high dosages (general statement); format: in vivo; details: high dosages of 50 mg per kg of body weight per day or higher
Protocol: The dosage of Ezrin peptide 1 and its analogues of the formula (I) is not particularly critical, as Ezrin peptide 1 and its analogues are not toxic even at high dosages of 50 mg per kg of body weight per day or higher. Preferably, Ezrin peptide 1 and its analogues are administered to an adult human in an amount of at least 0.05 milligrams per day (mg/d), in particular at least 0.1 mg/d, e.g. in an amount of 0.05 to 5 mg/d, in particular 0.1 to 2 mg/d or 0.1 to 1 mg/d or 0.1 to 0.5 mg/d. Typically, for parenteral administrations lower dosages will be required than for oral or rectal administration. To achieve a rapid relief of the symptoms of post-COVID-19 syndrome, it may also be reasonable to administer at least 0.5 mg per day or at least 1 mg per day, e.g. in the range of 0.5 to 5 mg/d, but in other cases a lower dosage may be suitable. It is also possible to start with a higher dosage, e. g. in the range of 0.5 to 5 mg/d, more preferably 0.5 to 3 mg/d and then continue with a lower dosage of e.g. 0.05 to 0.5 mg/d or 0.1 to 0.5 mg/day. A single administration of Ezrin peptide 1 and/or one of its analogues of the formula (I) may be sufficient to ameliorate or even cure the symptoms of a post-COVID-19 syndrome. […] Depending on the severity of the symptoms, this time period is typically in the range of 5 days to 10 weeks and in particular in the range of 10 days to 8 weeks.

[2] = tested on: cell cultures; details: R. Ataullakhanov et al. 2005; cited from earlier work
[3] = tested on: LONG-COVID-19 symptoms; assay: Treatment of patients suffering from post-COVID-19 syndrome (long COVID) with daily s.c. injection of HEP-1, single case reports; format: in vivo, human
[4] = tested on: inflammatory cytokine production; details: cell cultures; cited from earlier work

## TEKKRRETVEREKE [HEP-1, NH2_Thr-Glu-Lys-Lys-Arg-Arg-Glu-Thr-Val-Glu-Arg-Glu-Lys-Glu_COOH]
[1]
  toxicity: not toxic
[2]
  anti-viral effect in cell cultures: shows an anti-viral effect
[3]; Example 1, person, HEP-1 0.2 mg s.c. per day 22 Jan. 2021 until Mar. 10 2021, assessed 10 Mar. 2021
  final clinical outcome of long COVID: complete recovery
[3]; Example 1, person, HEP-1 0.2 mg s.c. per day from 22 Jan. 2021, assessed 29 Jan. 2021
  mental ability (short memory) and physical strength (walking distance), interim outcome: remarkable improvement
[3]; Example 2, person, ankylosis spondylitis, HEP-1 0.2 mg s.c. per day from 26 Feb. 2021, assessed 4 Mar. 2021
  mental ability (short memory) and physical strength (walking distance), interim outcome: remarkable improvement
[3]; Example 2, person, HEP-1 0.2 mg s.c. per day 26 Feb. 2021 until Mar. 17 2021, assessed 17 Mar. 2021
  final clinical outcome of long COVID: complete recovery
[3]; Example 3, person, HEP-1 0.2 mg s.c. per day 29 Mar. 2021 until Apr. 24 2021, assessed 23 Apr. 2021
  final clinical outcome of long COVID: complete recovery
[3]; Example 3, person, HEP-1 0.2 mg s.c. per day from 29 Mar. 2021, assessed 15 Apr. 2021
  mental ability (short memory) and physical strength (walking distance), interim outcome: remarkable improvement
[3]; Example 4, person, HEP-1 0.2 mg s.c. per day for 10 days
  final clinical outcome of long COVID (persisting fatigue syndrome): free of any symptoms
[3]; Example 5, person, HEP-1 0.2 mg s.c. per day from 26 Feb. 2021, assessed 12 Mar. 2021
  final clinical outcome of long COVID (fatigue syndrome and cognitive disorder): free of any symptoms
[3]; Example 6, person, asthma, HEP-1 2 mg s.c. per day for 10 days, then 0.2 mg s.c. per day for 30 days, after 3 weeks of treatment
  final clinical outcome of long COVID: cured
[3]; Example 7, person, HEP-1 0.2 mg s.c. per day, after 11 days of treatment
  final clinical outcome of long COVID (fatigue, cognitive disorder, narcolepsy): symptoms completely disappeared
[4]
  production of pro- and inflammatory cytokins (e.g. IL-1, IL-6, TNF-alpha): reduces
  synthesis of alpha- and beta interferons: induces

Reference: patent publication US20240180999A1, “EZRIN PEPTIDE 1 FOR USE IN A METHOD OF TREATING POST COVID-19” (priority 2021, published 2024)
